Some test systems named below: A549 NSCLC; ACHN renal; HOP-92 NSCLC; MALME-3M melanoma; MCF7 breast; SF-268 CNS; SF-539 CNS; SNB-19 CNS; TK-10 renal; UO-31 renal.
Holding throughout (experiment): inhibition of tumour cell growth, NCI panel, 48 h

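Protocol summary: plate cells (96-well), add compound at 5 concentrations, incubate 48 h, interpolate endpoints linearly. At the TGI there is no net growth.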 *1 amine or outer side, *2 acyl side, *3 side chain or, on linkers, in order; H or OH if unused. Where a SMILES comes first, the peptide text is derived from it. Bridges are numbered along the chain shown (N, C = ends). Roman numbers before positions name the chains, in order. [ ]: non-standard residue; d: D form. ξ: configuration not given here. X54 = N=C(N)NCCC[C@@H](NC(=N)CCCCCCC(=N)N[C@H](CCCNC(=N)N)C(=O)[*:2])C(=O)[*:1]; dIgl = N[C@@H](C(=O)O)C1Cc2ccccc2C1; Hyp = O=C(O)[C@@H]1C[C@@H](O)CN1; ξIgl = NC(C(=O)O)C1Cc2ccccc2C1; ξOic = O=C(O)C1CC2CCCCC2N1; ξR = N=C(N)NCCCC(N)C(=O)O; ξP = O=C(O)C1CCCN1; ξS = NC(CO)C(=O)O

With `N#Cc1c(N)oc(-c2ccc([N+](=O)[O-])cc2)c1C#N`, the TGI in the experiment with A549 NSCLC was greater than 100 µM; in the experiment on ACHN renal, 72.4 µM; in the experiment with HOP-92 NSCLC, 62.9 µM; in the experiment with MALME-3M melanoma, 95.9 µM; in the experiment on MCF7 breast, greater than 100 µM; in the experiment on SF-268 CNS, 58.9 µM. In addition, the TGI in the experiment with SF-539 CNS was 48.3 µM; in the experiment with SNB-19 CNS it was 91.6 µM; with TK-10 renal, 76.8 µM; in the experiment on UO-31 renal, 42.4 µM.

In the case of `CN1CCN(C(=O)CCC(=O)Nc2cc3c(c4ccccc24)-c2ccc4ccccc4c2C3)CC1`, the TGI in the experiment with A549 NSCLC came out at 3.96 µM; with ACHN renal it was 3.78 µM; with HOP-92 NSCLC it was 3.36 µM; in the experiment on MALME-3M melanoma, 3.71 µM; in the experiment on MCF7 breast it was 3.03 µM; in the experiment with SF-268 CNS, 3.57 µM. The TGI was found to be 3.13 µM in the experiment with SF-539 CNS, 3.93 µM in the experiment on SNB-19 CNS, 3.27 µM with TK-10 renal and 3.28 µM with UO-31 renal.

With `C=C(C)[C@@H](O)[C@H](O)C[C@H](C)C1CC[C@]2(C)C1=CC[C@@H]1[C@@]3(C)CC[C@@H](OC(C)=O)C(C)(C)[C@@H]3C[C@@H](OC3OC(COC(C)=O)C(O)C(O)C3O)[C@]12C` (some centres undefined), the TGI in the experiment with A549 NSCLC stood at 12.2 µM; in the experiment with ACHN renal it was 6.36 µM; in the experiment with HOP-92 NSCLC, 6.17 µM; in the experiment on MALME-3M melanoma it was 4.81 µM; in the experiment on MCF7 breast, 8.82 µM; in the experiment with SF-268 CNS, 9.86 µM. Also, the TGI with SF-539 CNS is 11.7 µM; with SNB-19 CNS it was 14.7 µM; in the experiment with TK-10 renal it was 10.6 µM; with UO-31 renal it was 12.4 µM.

On to `COC1=C[C@]2(CCC(=O)O2)[C@@H]2Cc3ccccc3[C@H](O)[C@@H]2C1=O`, for which the TGI was greater than 100 µM in the experiment on A549 NSCLC; greater than 100 µM in the experiment with ACHN renal; greater than 100 µM with HOP-92 NSCLC; 50.2 µM in the experiment with MALME-3M melanoma; greater than 100 µM in the experiment with MCF7 breast; greater than 100 µM with SF-268 CNS. Moreover, the TGI in the experiment with SNB-19 CNS, with TK-10 renal and with UO-31 renal was greater than 100 µM throughout.

Regarding `N=C(N)NCCCC(NC(=O)C1CC2CCCCC2N1C(=O)[C@H](NC(=O)C(CO)NC(=O)C(NC(=O)CNC(=O)[C@@H]1C[C@@H](O)CN1C(=O)C1CCCN1C(=O)C(CCCNC(=N)N)NC(=O)[C@@H](CCCNC(=N)N)NC(=N)CCCCCCC(=N)N[C@H](CCCNC(=N)N)C(=O)NC(CCCNC(=N)N)C(=O)N1CCCC1C(=O)N1C[C@H](O)C[C@H]1C(=O)NCC(=O)NC(C(=O)NC(CO)C(=O)N[C@@H](C(=O)N1C(C(=O)NC(CCCNC(=N)N)C(=O)O)CC2CCCCC21)C1Cc2ccccc2C1)C1Cc2ccccc2C1)C1Cc2ccccc2C1)C1Cc2ccccc2C1)C(=O)O` (some centres undefined) (I: [ξR][ξP][Hyp]G[ξIgl][ξS][dIgl][ξOic][ξR]-OH / II: [ξR][ξP][Hyp]G[ξIgl][ξS][dIgl][ξOic][ξR]-OH; linker I:N-II:N via X54), the TGI in the experiment with A549 NSCLC was greater than 10 µM; with ACHN renal, 3.91 µM; in the experiment on HOP-92 NSCLC, 4.71 µM; in the experiment with MALME-3M melanoma, 5.1 µM; with MCF7 breast, 4.04 µM; in the experiment with SF-268 CNS, 3.82 µM. For the same molecule, the TGI in the experiment on SF-539 CNS is 5.32 µM; in the experiment on SNB-19 CNS, 5.49 µM; with TK-10 renal, 8.95 µM; with UO-31 renal it was greater than 10 µM.

As for `COc1cc(C2c3cc4c(cc3OC(NNc3ccccc3)C2C)OCO4)cc(OC)c1OC` (centres undefined), the TGI with A549 NSCLC is greater than 42.3 µM; in the experiment with ACHN renal it was 27.5 µM; in the experiment on HOP-92 NSCLC, 52.1 µM; in the experiment on MALME-3M melanoma it was greater than 38.5 µM; in the experiment on MCF7 breast, greater than 35.7 µM; in the experiment with SF-268 CNS, 38.1 µM. The TGI in the experiment with SF-539 CNS was 1.67 µM; in the experiment with SNB-19 CNS it was greater than 31 µM; in the experiment on TK-10 renal, 31.8 µM; in the experiment on UO-31 renal it was 6.79 µM.

Turning to `CCC(=O)Nc1cccc(N=Cc2ccc(OC(=O)/C=C\c3ccccc3)cc2)c1`, the TGI with A549 NSCLC, in the experiment with ACHN renal, in the experiment with HOP-92 NSCLC, in the experiment on MALME-3M melanoma, in the experiment with MCF7 breast and in the experiment on SF-268 CNS was greater than 75 µM in each case. Besides, the TGI with SF-539 CNS, in the experiment on SNB-19 CNS, in the experiment with TK-10 renal and in the experiment on UO-31 renal was greater than 75 µM each time.

As for `O=C1/C(=C/c2ccc(O)cc2)CCCC1CN1CCCCC1` (centres undefined), the TGI with A549 NSCLC came out at 31.9 µM; in the experiment on ACHN renal, 3.11 µM; with HOP-92 NSCLC it was 3.47 µM; with MALME-3M melanoma it was 3.36 µM; in the experiment with MCF7 breast, 6.49 µM; in the experiment with SF-268 CNS, 11.9 µM. For the same molecule, the TGI in the experiment on SF-539 CNS worked out at 8.45 µM; with SNB-19 CNS, 31.8 µM; in the experiment on TK-10 renal, 8.64 µM; in the experiment with UO-31 renal, 5.88 µM.

As for `Fc1ccc(-c2sc(-c3ccsc3)cc2Cc2ccsc2)cc1`, the TGI in the experiment with A549 NSCLC, with HOP-92 NSCLC, in the experiment with MALME-3M melanoma, in the experiment on MCF7 breast, in the experiment on SF-268 CNS and in the experiment on TK-10 renal was greater than 10 µM in each case.

As to `COC(=O)Nc1nc2ccc(S(=O)(=O)Nc3ccccn3)cc2[nH]1`, the TGI in the experiment on A549 NSCLC, in the experiment with ACHN renal, with HOP-92 NSCLC, in the experiment with MALME-3M melanoma, in the experiment with MCF7 breast and with SF-268 CNS was greater than 100 µM throughout. Besides, the TGI with SF-539 CNS is 52.6 µM; in the experiment with SNB-19 CNS, greater than 100 µM; in the experiment on TK-10 renal it was 70.3 µM; in the experiment on UO-31 renal, greater than 100 µM.

For the molecule `COc1cc(C2c3cc4c(cc3OC(NNC(N)=O)C2C)OCO4)cc(OC)c1OC` (centres undefined), the TGI with A549 NSCLC was greater than 100 µM; in the experiment on ACHN renal it was greater than 62.2 µM; with HOP-92 NSCLC, 8.18 µM; in the experiment on MALME-3M melanoma, greater than 100 µM; in the experiment with MCF7 breast, greater than 53.8 µM; with SF-268 CNS, greater than 100 µM. For the same molecule, the TGI in the experiment with SF-539 CNS was 0.165 µM; with SNB-19 CNS, greater than 100 µM; in the experiment with TK-10 renal it was greater than 100 µM; in the experiment on UO-31 renal, greater than 72.6 µM.

Turning to `COC(=O)c1c(O)ccc2c1c1cc3ccccc3cc1n2Cc1cc(OC)cc(OC)c1`, the TGI with A549 NSCLC is greater than 100 µM; in the experiment with ACHN renal, greater than 100 µM; with HOP-92 NSCLC, greater than 100 µM; with MALME-3M melanoma, 64.3 µM; with MCF7 breast, greater than 100 µM; in the experiment on SF-268 CNS, greater than 26.9 µM. Also, the TGI with SNB-19 CNS, in the experiment on TK-10 renal and in the experiment with UO-31 renal was greater than 100 µM throughout.

The record behind these values is PubChem BioAssay (NCI).
